# In US11542545B2, “Microfluidic measurements of the response of an organism to a drug” (priority 2014, dated 2023):
# Like-named read-outs stand apart in the source and are kept apart here.
# Tests used:
# [1] = test system: E. coli isolates from patients with urinary tract infections and susceptible to various antibiotics; settings: 1:1 BHI:urine, qPCR
# [2] = test system: susceptible UTI E. coli isolate; settings: 2.5 ug/mL ciprofloxacin, 15 minutes, BHI
# [3] = test system: ciprofloxacin-susceptible E. coli isolate from a patient with a urinary tract infection; settings: 0.75 ug/mL ciprofloxacin, 30 minutes, 1:1 BHI:urine, qPCR, 3 replicates
# [4] = test system: resistant E. coli isolate; test: 23S rDNA copy number by digital PCR on a SlipChip after ciprofloxacin exposure, resistant isolate; assay type: cell-based; settings: Example 4 resistant isolate, 2.5 ug/mL ciprofloxacin
# [5] = test system: ciprofloxacin-susceptible E. coli isolate from a patient with a urinary tract infection; settings: 0.75 ug/mL ciprofloxacin, 30 minutes, sample diluted 1:10, digital PCR, Poisson statistics
# E. coli isolates = settings: RNA target; cited from earlier work
# resistant UTI E. coli = settings: 2.5 ug/mL ciprofloxacin, 15 minutes, BHI
# E. coli = settings: after treatment with trimethoprim, susceptible cells, vs baseline level of zero (Slager 2014); cited from earlier work
molecule,measurement,setting,value
trimethoprim/sulfamethoxazole,fold change in rDNA copy number,"[1]; trimethoprim/sulfamethoxazole treatment, 45 minutes",1.35 fold
O=C1CN(/N=C/c2ccc([N+](=O)[O-])o2)C(=O)N1 [nitrofurantoin],fold change in rDNA copy number,"[1]; nitrofurantoin treatment, 15 minutes",1.62 fold
O=C(O)c1cn(C2CC2)c2cc(N3CCNCC3)c(F)cc2c1=O [ciprofloxacin],23S CT Treated,[2],20.19/20.84
same,FeoB CT Treated,[2],23.3/23.71
same,dnaAinh CT Treated,[2],23.93/23.97
same,recA CT Treated,[2],24.81/24.65
same,"Cq of rDNA, treated sample",[3],22.84+/−0.53
same,change in rDNA copy number,[4],No significant change
same,"23S rDNA concentration, treated sample",[5],"148,031+/−7,103 copies/mL"
same,"Response to Ciprofloxacin: EcHS_A0999 dmsA anaerobic dimethyl sulfoxide reductase, A subunit",E. coli isolates,Same or Downregulated
same,Response to Ciprofloxacin: EcHS_A1247 pepT peptidase T,E. coli isolates,Same or Downregulated
same,Response to Ciprofloxacin: EcHS_A1333 narK nitrite extrusion protein 1,E. coli isolates,Same or Downregulated
same,"Response to Ciprofloxacin: EcHS_A1334 narG nitrate reductase, alpha subunit",E. coli isolates,Same or Downregulated
same,"Response to Ciprofloxacin: EcHS_A1335 narH nitrate reductase, beta subunit",E. coli isolates,Same or Downregulated
same,"Response to Ciprofloxacin: EcHS_A1557 fdnG formate dehydrogenase, nitrate inducible, alpha subunit, selenocysteine-containing",E. coli isolates,Same or Downregulated
same,Response to Ciprofloxacin: EcHS_A1755 hypothetical protein,E. coli isolates,Same or Downregulated
same,Response to Ciprofloxacin: EcHS_A1940 DNA damage-inducible protein YebG,E. coli isolates,Significantly Upregulated
same,Response to Ciprofloxacin: EcHS_A1987 flhC transcriptional activator FlhC,E. coli isolates,Same or Downregulated
same,Response to Ciprofloxacin: EcHS_A1988 flhD transcriptional activator FlhD,E. coli isolates,Same or Downregulated
same,Response to Ciprofloxacin: EcHS_A2346 napF ferredoxin-type protein,E. coli isolates,Same or Downregulated
same,Response to Ciprofloxacin: EcHS_A2835 recA recombinase A,E. coli isolates,Significantly Upregulated
same,Response to Ciprofloxacin: EcHS_A4283 lexA LexA repressor,E. coli isolates,Significantly Upregulated
same,Response to Ciprofloxacin: EcHS_A4284 dinF DNA-damage-inducible SOS response protein,E. coli isolates,Significantly Upregulated
same,Response to Ciprofloxacin: EcHS_A4300 uvrA excinuclease ABC subunit A,E. coli isolates,Significantly Upregulated
same,23S CT Treated,resistant UTI E. coli,20.22/20.13
same,FeoB CT Treated,resistant UTI E. coli,23.19/23.1
same,dnaAinh CT Treated,resistant UTI E. coli,23.68/23.89
same,recA CT Treated,resistant UTI E. coli,27.19/27.05
CN(C)[C@@H]1C(O)=C(C(N)=O)C(=O)[C@@]2(O)C(O)=C3C(=O)c4c(O)cccc4[C@@](C)(O)[C@H]3C[C@@H]12 [tetracycline],fold change in rDNA copy number,"[1]; tetracycline treatment, 30 minutes",1.55 fold
COc1cc(Cc2cnc(N)nc2N)cc(OC)c1OC [trimethoprim],relative DNA copy number as compared to the distance from the origin of replication (oriC),E. coli,peaks close to the origin of replication
